In patent US6444617B1, “Fused-heterocycle dicarboxylic acid diamide derivatives or salts thereof, herbicide and usage thereof” (Nihon Nohyaku Co., Ltd., priority 1998, dated 2002):

Experiments:
Assay type in all cases: in vivo
[1] = test system: cleavers (Galium aparine L.), Ga; experiment: Test Example 3: herbicidal effect on upland weeds before emergence; details: dosage 5 kg/ha
How it was run: (§1)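 Herbicidal activity was rated from kill rate determined 14 days post-spray, the compound having been applied pre-emergence as a liquid agent.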

[2] = test system: barnyard grass (Echinochloa crus-galli Beauv.), Ec; experiment: as above; details: dosage 5 kg/ha
How it was run: as §1

[3] = test system: bird's eye speedwell (Veronica persica Poir.), Vp; experiment: as above; details: dosage 5 kg/ha
How it was run: as §1

[4] = test system: cocklebur (Xanthium strumarium L.), Xs; experiment: as above; details: dosage 5 kg/ha
How it was run: as §1

[5] = test system: velvetleaf (Abutilon theophtasti L.), At; experiment: as above; details: dosage 5 kg/ha
How it was run: as §1

[6] = test system: forxtail grass (Alopecurus aequalis var. amurensis Ohwi), Am; experiment: as above; details: foxtail grass, dosage 5 kg/ha
How it was run: as §1

[7] = test system: cleavers (Galium aparine L.), Ga; experiment: Test Example 4: herbicidal effect on upland weeds after emergence; details: dosage 5 kg/ha; sprayed after emergence; judged 14 days after treatment
How it was run: (§2)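 Post-emergence foliar spray at a prescribed concentration, applied once the sown weeds and soybean reached defined leaf stages in soil vats; herbicidal effect and soybean injury scored after 14 days.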

[8] = test system: barnyard grass (Echinochloa crus-galli Beauv.), Ec; experiment: as above; details: dosage 5 kg/ha; sprayed after emergence; judged 14 days after treatment
How it was run: as §2

[9] = test system: bird's eye speedwell (Veronica persica Poir.), Vp; experiment: as above; details: dosage 5 kg/ha; sprayed after emergence; judged 14 days after treatment
How it was run: as §2

[10] = test system: cocklebur (Xanthium strumarium L.), Xs; experiment: as above; details: dosage 5 kg/ha; sprayed after emergence; judged 14 days after treatment
How it was run: as §2

[11] = test system: velvetleaf (Abutilon theophtasti L.), At; experiment: as above; details: dosage 5 kg/ha; sprayed after emergence; judged 14 days after treatment
How it was run: as §2

[12] = test system: forxtail grass (Alopecurus aequalis var. amurensis Ohwi), Am; experiment: as above; details: dosage 5 kg/ha; sprayed after emergence; judged 14 days after treatment
How it was run: as §2

soybean plant (So) = experiment: Test Example 3: phytotoxicity to upland crop plants, treatment before emergence; details: dosage 5 kg/ha
How it was run: (§3)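 Crop injury to soybean and wheat was judged on a phytotoxicity scale 14 days after a pre-emergence spray of a liquid formulation at a prescribed concentration of compound.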

wheat (Wh) = experiment: as above; details: dosage 5 kg/ha
How it was run: as §3

soybean plant = experiment: Test Example 4: phytotoxicity to upland crop plants, treatment after emergence; details: dosage 5 kg/ha, sprayed after emergence, judged 14 days after treatment
How it was run: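 Weeds and soybean grown in soil-filled vats to set leaf stages, then sprayed post-emergence with the compound at a prescribed concentration. Weed-killing rate and crop phytotoxicity judged 14 days after treatment.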

wheat = experiment: as above; details: dosage 5 kg/ha, sprayed after emergence, judged 14 days after treatment
How it was run: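 Upland weeds and crop plants (soybean, wheat) are grown from seed in soil until they reach given leaf stages, then treated by spraying with the compound-containing agent; effects are judged two weeks later.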

[13] = test system: barnyard grass (Echinochloa crus-galli Beauv.); experiment: Test Example 2: herbicidal effect on paddy field weeds after emergence; details: Dosage 5 kg/ha; one-leaved stage; 21 days after treatment
How it was run: (§4)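 Weeds were sown in 1/10000 are pots of soil flooded to paddy conditions and grown to the one-leaf stage, then the soil was treated with a solution of compound at a predetermined dosage.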

[14] = test system: bulrush (Scirpus juncoides Roxb.); experiment: as above; details: Dosage 5 kg/ha; one-leaved stage; 21 days after treatment
How it was run: as §4

[15] = test system: monochoria (Monochoria vaginalis Presl); experiment: as above; details: Dosage 5 kg/ha; one-leaved stage; 21 days after treatment
How it was run: as §4

[16] = test system: barnyard grass (Echinochloa crus-galli Beauv.); experiment: Test Example 1: herbicidal effect on paddy field weeds before emergence; details: Dosage 5 kg/ha
How it was run: (§5)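 Soil in pots is brought to paddy state and seeded with barnyard grass and bulrush; before germination, the soil receives a predetermined dosage of test compound in solution. After twenty-one days, control rate relative to untreated pots is calculated and graded.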

[17] = test system: bulrush (Scirpus juncoides Roxb.); experiment: as above; details: Dosage 5 kg/ha
How it was run: as §5

Row | Compound | Herbicidal effect Ga [1] | Herbicidal effect Ec [2] | Herbicidal effect Vp [3] | Herbicidal effect Xs [4] | Herbicidal effect At [5] | Herbicidal effect Am [6] | Herbicidal effect Ga [7] | Herbicidal effect Ec [8] | Herbicidal effect Vp [9] | Herbicidal effect Xs [10] | Herbicidal effect At [11] | Herbicidal effect Am [12] | Phytotoxicity So (soybean plant (So)) | Phytotoxicity Wh (wheat (Wh)) | Phytotoxicity So (soybean plant) | Phytotoxicity Wh (wheat) | Post-emergence treatment Barnyard grass (herbicidal effect) [13] | Post-emergence treatment Bulrush (herbicidal effect) [14] | Post-emergence treatment Monochoria (herbicidal effect) [15] | Pre-emergence treatment Barnyard grass (herbicidal effect) [16] | other results
1 | CCCNC(=O)c1nc2ccsc2cc1C(=O)Nc1c(CC)ccc(Cl)c1CC [compound 871] | 5 (Weed-killing rate is 100%.) | 5 (Weed-killing rate is 100%.) | 5 (Weed-killing rate is 100%.) | 5 (Weed-killing rate is 100%.) | 5 (Weed-killing rate is 100%.) | 5 (Weed-killing rate is 100%.) | 5 (Weed-killing rate is 100%.) | 5 (Weed-killing rate is 100%.) | 5 (Weed-killing rate is 100%.) | 5 (Weed-killing rate is 100%.) | 5 (Weed-killing rate is 100%.) | 5 (Weed-killing rate is 100%.) | 4 (Crop-killing rate is 90-99%.) | 5 (Crop-killing rate is 100%.) | 4 (Crop-killing rate is 90-99%.) | 5 (Crop-killing rate is 100%.) | 5 (Weed-killing rate is 100%.) | 5 (Weed-killing rate is 100%.) | 5 (Weed-killing rate is 100%.) | 5 (Weed-killing rate is 100%.) | Pre-emergence treatment Bulrush (herbicidal effect) [17]: 5 (Weed-killing rate is 100%.)
2 | Cc1c(Cl)cccc1NC(=O)c1cc2sccc2nc1C(=O)NC1CCCC1 [compound 892] | 5 (Weed-killing rate is 100%.) | 5 (Weed-killing rate is 100%.) | 5 (Weed-killing rate is 100%.) | 4 (Weed-killing rate is 90-99%.) | 5 (Weed-killing rate is 100%.) | 5 (Weed-killing rate is 100%.) | 4 (Weed-killing rate is 90-99%.) | 5 (Weed-killing rate is 100%.) | 5 (Weed-killing rate is 100%.) | 4 (Weed-killing rate is 90-99%.) | 5 (Weed-killing rate is 100%.) | 5 (Weed-killing rate is 100%.) | 3 (Crop-killing rate is 70-89%.) | 4 (Crop-killing rate is 90-99%.) | 3 (Crop-killing rate is 70-89%.) | 4 (Crop-killing rate is 90-99%.) | 5 (Weed-killing rate is 100%.) | 5 (Weed-killing rate is 100%.) | 5 (Weed-killing rate is 100%.) | 5 (Weed-killing rate is 100%.) | Pre-emergence treatment Bulrush (herbicidal effect) [17]: 5 (Weed-killing rate is 100%.)
3 | CCNC(=O)c1nc2ccn(OC)c2cc1C(=O)Nc1c(CC)ccc(Cl)c1CC [compound 894] | 5 (Weed-killing rate is 100%.) | 5 (Weed-killing rate is 100%.) | 5 (Weed-killing rate is 100%.) | 5 (Weed-killing rate is 100%.) | 5 (Weed-killing rate is 100%.) | 5 (Weed-killing rate is 100%.) | 5 (Weed-killing rate is 100%.) | 5 (Weed-killing rate is 100%.) | 5 (Weed-killing rate is 100%.) | 4 (Weed-killing rate is 90-99%.) | 5 (Weed-killing rate is 100%.) | 5 (Weed-killing rate is 100%.) | 4 (Crop-killing rate is 90-99%.) | 5 (Crop-killing rate is 100%.) | 4 (Crop-killing rate is 90-99%.) | 5 (Crop-killing rate is 100%.) | 5 (Weed-killing rate is 100%.) | 5 (Weed-killing rate is 100%.) | 5 (Weed-killing rate is 100%.) | 5 (Weed-killing rate is 100%.) | Pre-emergence treatment Bulrush (herbicidal effect) [17]: 5 (Weed-killing rate is 100%.)
4 | CCCNC(=O)c1nc2ccn(OC)c2cc1C(=O)Nc1c(CC)ccc(Cl)c1CC [compound 895] | 5 (Weed-killing rate is 100%.) | 5 (Weed-killing rate is 100%.) | 5 (Weed-killing rate is 100%.) | 5 (Weed-killing rate is 100%.) | 5 (Weed-killing rate is 100%.) | 5 (Weed-killing rate is 100%.) | 5 (Weed-killing rate is 100%.) | 5 (Weed-killing rate is 100%.) | 5 (Weed-killing rate is 100%.) | 5 (Weed-killing rate is 100%.) | 5 (Weed-killing rate is 100%.) | 5 (Weed-killing rate is 100%.) | 4 (Crop-killing rate is 90-99%.) | 5 (Crop-killing rate is 100%.) | 4 (Crop-killing rate is 90-99%.) | 5 (Crop-killing rate is 100%.) | 5 (Weed-killing rate is 100%.) | 5 (Weed-killing rate is 100%.) | 5 (Weed-killing rate is 100%.) | 5 (Weed-killing rate is 100%.) | Pre-emergence treatment Bulrush (herbicidal effect) [17]: 5 (Weed-killing rate is 100%.)
5 | CCCNC(=O)c1nc2ccn(C)c2cc1C(=O)Nc1c(CC)ccc(Cl)c1CC [compound 907] | 5 (Weed-killing rate is 100%.) | 5 (Weed-killing rate is 100%.) | 5 (Weed-killing rate is 100%.) | 5 (Weed-killing rate is 100%.) | 5 (Weed-killing rate is 100%.) | 5 (Weed-killing rate is 100%.) | 5 (Weed-killing rate is 100%.) | 5 (Weed-killing rate is 100%.) | 5 (Weed-killing rate is 100%.) | 5 (Weed-killing rate is 100%.) | 5 (Weed-killing rate is 100%.) | 5 (Weed-killing rate is 100%.) | 4 (Crop-killing rate is 90-99%.) | 5 (Crop-killing rate is 100%.) | 4 (Crop-killing rate is 90-99%.) | 5 (Crop-killing rate is 100%.) | 5 (Weed-killing rate is 100%.) | 5 (Weed-killing rate is 100%.) | 5 (Weed-killing rate is 100%.) | 5 (Weed-killing rate is 100%.) | Pre-emergence treatment Bulrush (herbicidal effect) [17]: 5 (Weed-killing rate is 100%.)
